# Measurements: US9421181B2, “Antihypoxic pharmaceutical composition and application thereof” (CHANGZHOU HI-TECH DISTRICT MULTIPLE DIMENSION INDUSTRY …, priority 2013, dated 2016)
# Counter-ions that a name gives are not always drawn.
# Columns and labels:
# [1] = tested on: mice model of acute brain hypoxia; assay: Mice model of acute brain hypoxia: breathing time after decollation; format: in vivo, Kunming mice; conditions: intragastric once a day 7 days
# Experimental: (§1) Randomly group 70 Kunming male mice into 7 groups: control group, group of L-carnitine 450 mg/kg, group of trimetazidine 9 mg/kg, group of vinpocetine 1.5 mg/kg, group of L-carnitine 450+trimetazidine 9 mg/kg, group of trimetazidine 9+vinpocetine 1.5 mg/kg, and group of L-carnitine 450+trimetazidine 9+vinpocetine 1.5 mg/kg, with each group of 10 mice. Administer […] preparation intragastrically to the mice of experimental groups, and the same volume of normal saline to control group once a day for consecutive 7 days. One hour after the last administration, behead the mice immediately from behind the ear, and stopwatch the breathing time of mice after their decollation.
# [2] = tested on: mice under the condition of normobaric hypoxia; assay: Hypoxia tolerance and survival time of mice under normobaric hypoxia (sealed bottle with soda lime); format: in vivo; conditions: intragastric once a day 7 days
# Experimental: (§2) Choose 100 male mice with weight of 20±2 g, randomly group them into 10 by weight with each group of 10 mice, and then inject 10 ml/kg preparation to experimental groups, and the same volume of normal saline to control group by tail intravenous injection once a day for consecutive 7 days. One hour after the last injection, put each mouse into a 160 ml wild-mouth bottle, into which 5 g soda lime has been pre-added, and then seal tightly the caps with petroleum jelly. Record survival time of the mice with death as the indicator.
# (§3) Choose 80 male mice with weight of 20±2 g, randomly group them into 8 by weight with each group of 10 mice, and then administer 20 ml/kg preparation intragastrically to the mice of experimental groups, and the same volume of normal saline to control group once a day for consecutive 7 days. One hour after the last administration, put each mouse into a 160 ml wild-mouth bottle, into which 5 g soda lime has been pre-added, and then seal tightly the caps with petroleum jelly. Record survival time of the mice with death as the indicator.
# as §3, with “40” for “80”, “4” for “8”
# as §2, with “Choose 370” for “Choose 100”, “into 37” for “into 10”, “group” for “group by tail intravenous injection”
# brain tissue of the mice = assay: Content of EAA (Glu, Asp, GABA, Gly) in brain tissue after decollation; format: in vivo, Kunming mice; conditions: intragastric 7 days
# Experimental: as §1
# Biochemical indicator test of brain tissue: After death of the mice, immediately get their brain tissues in ice bath, wash them in ice saline to remove the residual blood, and then add ice […] according to the proportion of 1:9. Under the condition of ice bath, high-speed homogenate machine (10 s per times, at intervals of 15 s for 4 times) is used to make the brain tissue into 10% cerebral homogenate. Centrifuge the homogenate under the temperature of 4° C. with the speed of 2000 r/min for 5 min to separate the supernatant, and detect the content of glutamic acid (Glu), aspartic acid (Asp), aminobutyric acid (GABA), and glycine (Gly) in the brain tissue of the mice by amino acid analyzer. After brain injury, the content of Glu, Asp, GABA and Gly, etc. (representatives of the excitatory amino acid (EAA)) in the brain is higher. In particular, one of the important mechanisms that could cause the death of secondary brain injury neurons is the excessive release of Glu. An important reason that leads to delayed neuronal death is the cascade of damage due to calcium overload in the neurons, which is caused by the activation of receptor N-methyl-D-aspartate (NMDA) by Glu. The degree to which the mitochondrial function is damaged determines the death method of neurons [Clemens J A, Stephenson D T, Smalsting E B. Global ischemia activate nuclear. Storke, 1997, 28:1073-1076].
smiles,measurement,setting,value
C[N+](C)(C)C[C@H](O)CC(=O)[O-] [L-carnitine],Breathing Time after Decollation,[1]; L-carnitine 450 mg/kg,18.6 ± 1.2 S
same,Prolonged Survival Time,[2]; L-carnitine 450 mg/kg alone,31.6%
same,Survival Time,[2]; L-carnitine 450 mg/kg alone,29.6 ± 3.6 min
same,Asp content in brain tissue,brain tissue of the mice; L-carnitine 450 mg/kg,15.68 ± 4.23 µmol/L
same,GABA content in brain tissue,brain tissue of the mice; L-carnitine 450 mg/kg,3.71 ± 1.11 µmol/L
same,Glu content in brain tissue,brain tissue of the mice; L-carnitine 450 mg/kg,18.45 ± 1.22 µmol/L
same,Gly content in brain tissue,brain tissue of the mice; L-carnitine 450 mg/kg,3.54 ± 1.29 µmol/L
"COc1ccc(CN2CCNCC2)c(OC)c1OC [Trimetazidine, trimetazidine hydrochloride]",Breathing Time after Decollation,[1]; trimetazidine 9 mg/kg,18.5 ± 2.1 S
same,Asp content in brain tissue,brain tissue of the mice; trimetazidine 9 mg/kg,15.21 ± 2.06 µmol/L
same,GABA content in brain tissue,brain tissue of the mice; trimetazidine 9 mg/kg,3.44 ± 1.12 µmol/L
same,Glu content in brain tissue,brain tissue of the mice; trimetazidine 9 mg/kg,17.02 ± 0.99 µmol/L
same,Gly content in brain tissue,brain tissue of the mice; trimetazidine 9 mg/kg,3.49 ± 1.12 µmol/L
"CCOC(=O)C1=C[C@]2(CC)CCCN3CCc4c(n1c1ccccc41)[C@@H]32 [Vinpocetine, vinpocetine]",Breathing Time after Decollation,[1]; vinpocetine 1.5 mg/kg,19.5 ± 1.5 S
same,Prolonged Survival Time,[2]; vinpocetine 1.5 mg/kg alone,13.6%
same,Survival Time,[2]; vinpocetine 1.5 mg/kg alone,25.1 ± 4.8 min
same,Asp content in brain tissue,brain tissue of the mice; vinpocetine 1.5 mg/kg,15.46 ± 2.21 µmol/L
same,GABA content in brain tissue,brain tissue of the mice; vinpocetine 1.5 mg/kg,3.15 ± 1.05 µmol/L
same,Glu content in brain tissue,brain tissue of the mice; vinpocetine 1.5 mg/kg,19.12 ± 2.01 µmol/L
same,Gly content in brain tissue,brain tissue of the mice; vinpocetine 1.5 mg/kg,3.82 ± 1.84 µmol/L
